Consider six molecules from patent US11713338B2, “Cyclic peptides multimers targeting α-4-β-7 integrin” (priority 2016, dated 2023).

The target in the assay is T1, integrin α4β7 (RPMI8866 human cells adhering to MAdCAM-1) (Homo sapiens, UniProt P13612+P26010).
T1 construct: RMP18866 cells, which express integrin α4β7; host or cells: RPMI8866
T1 sequence (P13612 34-1032): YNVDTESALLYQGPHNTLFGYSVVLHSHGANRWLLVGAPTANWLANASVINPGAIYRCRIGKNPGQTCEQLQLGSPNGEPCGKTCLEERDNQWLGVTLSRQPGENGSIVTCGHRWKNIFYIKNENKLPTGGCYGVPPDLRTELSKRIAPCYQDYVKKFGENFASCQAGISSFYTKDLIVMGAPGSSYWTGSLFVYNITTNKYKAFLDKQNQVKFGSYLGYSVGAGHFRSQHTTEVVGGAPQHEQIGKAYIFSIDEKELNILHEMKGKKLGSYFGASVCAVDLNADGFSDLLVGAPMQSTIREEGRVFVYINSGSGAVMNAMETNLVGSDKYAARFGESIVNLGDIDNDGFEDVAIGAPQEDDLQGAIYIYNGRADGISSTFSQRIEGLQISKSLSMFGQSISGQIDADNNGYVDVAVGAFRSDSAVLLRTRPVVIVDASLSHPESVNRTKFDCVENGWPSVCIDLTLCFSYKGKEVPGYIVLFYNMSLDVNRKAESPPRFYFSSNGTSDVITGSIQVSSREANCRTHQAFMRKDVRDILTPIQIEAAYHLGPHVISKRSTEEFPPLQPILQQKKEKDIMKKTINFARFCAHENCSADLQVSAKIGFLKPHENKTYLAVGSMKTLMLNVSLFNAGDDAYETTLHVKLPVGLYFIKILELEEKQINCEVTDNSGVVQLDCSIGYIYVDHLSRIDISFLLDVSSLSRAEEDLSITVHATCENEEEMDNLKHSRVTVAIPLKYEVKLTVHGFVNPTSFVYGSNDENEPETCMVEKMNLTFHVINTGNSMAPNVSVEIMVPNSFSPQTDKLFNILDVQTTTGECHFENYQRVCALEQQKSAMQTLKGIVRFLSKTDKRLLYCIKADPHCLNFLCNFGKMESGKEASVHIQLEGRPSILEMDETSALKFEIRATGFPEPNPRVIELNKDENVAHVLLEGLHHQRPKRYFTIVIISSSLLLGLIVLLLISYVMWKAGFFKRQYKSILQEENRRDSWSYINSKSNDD
T1 sequence (P26010 20-798): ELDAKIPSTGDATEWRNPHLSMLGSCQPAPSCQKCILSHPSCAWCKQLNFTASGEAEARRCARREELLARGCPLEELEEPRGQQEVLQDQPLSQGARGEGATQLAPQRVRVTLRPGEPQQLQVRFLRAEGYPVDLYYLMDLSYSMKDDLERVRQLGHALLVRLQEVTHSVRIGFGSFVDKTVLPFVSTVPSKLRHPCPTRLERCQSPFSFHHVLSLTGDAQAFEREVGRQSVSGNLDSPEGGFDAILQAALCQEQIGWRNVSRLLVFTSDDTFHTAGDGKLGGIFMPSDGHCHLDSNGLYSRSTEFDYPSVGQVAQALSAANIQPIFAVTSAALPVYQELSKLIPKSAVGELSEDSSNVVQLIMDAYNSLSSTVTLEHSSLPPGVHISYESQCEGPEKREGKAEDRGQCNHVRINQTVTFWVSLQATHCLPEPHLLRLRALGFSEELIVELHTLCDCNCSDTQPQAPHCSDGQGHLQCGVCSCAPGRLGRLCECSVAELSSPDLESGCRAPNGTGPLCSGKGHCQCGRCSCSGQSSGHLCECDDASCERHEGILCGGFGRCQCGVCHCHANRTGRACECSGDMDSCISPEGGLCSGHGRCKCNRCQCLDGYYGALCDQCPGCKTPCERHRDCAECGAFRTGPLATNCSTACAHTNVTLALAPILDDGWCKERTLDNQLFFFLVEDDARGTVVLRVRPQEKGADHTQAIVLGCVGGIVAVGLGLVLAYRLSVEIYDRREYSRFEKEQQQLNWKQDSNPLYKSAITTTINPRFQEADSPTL
Put plainly: Integrin α4β7-MAdCAM cell adhesion assay (RPMI8866 cells). The class given is cell-based. The note with it: RPMI8866 cells adhering to MAdCAM; read-out: RPMI8866 Adhesion α4β7/MAdCAM IC50. A digest of the protocol:
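Adhesion was read by calcein fluorescence. RPMI8866 cells were labelled at 10 million cells/ml with […] calcein (37° C., 30 min) and washed twice in PBS before reading. Dose-response values were corrected by subtracting cell-free control well fluorescence.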

Consider `CC(C)C[C@@H]1NC(=O)c2ccc(-c3ccc(N4CCN(C(=O)c5cc(C(=O)N6CCN(c7ccc(-c8ccc9cc8CNC(=O)[C@@H]8CCCN8[C@H](C(=O)NC(C)(C)C)[C@H](C)NC(=O)[C@H]([C@@H](C)O)NC(=O)[C@H](CC(=O)O)NC(=O)[C@H](CC(C)C)NC9=O)cc7)CC6)cc(C(=O)N6CCN(c7ccc(-c8ccc9cc8CNC(=O)[C@@H]8CCCN8[C@H](C(=O)NC(C)(C)C)[C@H](C)NC(=O)[C@H]([C@@H](C)O)NC(=O)[C@H](CC(=O)O)NC(=O)[C@H](CC(C)C)NC9=O)cc7)CC6)c5)CC4)cc3)c(c2)CNC(=O)[C@@H]2CCCN2[C@H](C(=O)NC(C)(C)C)[C@H](C)NC(=O)[C@H]([C@@H](C)O)NC(=O)[C@H](CC(=O)O)NC1=O` [Compound 520], for which the IC50 was 6 nM.

For `CC(C)C[C@@H]1NC(=O)C[C@H](CCCCN)N(C)C(=O)[C@H](CCCCNC(=O)CCCCCCCCC(=O)NCCCC[C@@H]2NC(=O)[C@@H]3CCCN3[C@H](C(=O)NC(C)(C)C)[C@H](C)NC(=O)[C@H]([C@@H](C)O)NC(=O)[C@H](CC(=O)O)NC(=O)[C@H](CC(C)C)NC(=O)C[C@H](CCCCN)N(C)C2=O)NC(=O)[C@@H]2CCCN2[C@H](C(=O)NC(C)(C)C)[C@H](C)NC(=O)[C@H]([C@@H](C)O)NC(=O)[C@H](CC(=O)O)NC1=O` [Compound 530], the IC50 was 15 nM.

On to `CC(C)C[C@@H]1NC(=O)C[C@H](CCCCN)N(C)C(=O)[C@H](CCCCNC(=O)CCCCCCCC(=O)NCCCC[C@@H]2NC(=O)[C@@H]3CCCN3[C@H](C(=O)NC(C)(C)C)[C@H](C)NC(=O)[C@H]([C@@H](C)O)NC(=O)[C@H](CC(=O)O)NC(=O)[C@H](CC(C)C)NC(=O)C[C@H](CCCCN)N(C)C2=O)NC(=O)[C@@H]2CCCN2[C@H](C(=O)NC(C)(C)C)[C@H](C)NC(=O)[C@H]([C@@H](C)O)NC(=O)[C@H](CC(=O)O)NC1=O` [Compound 533], for which the IC50 came out at 17 nM.

Take `CC(C)C[C@@H]1NC(=O)C[C@H](CCCCN)N(C)C(=O)[C@H](CCCCNC(=O)c2ccccc2-c2ccccc2C(=O)NCCCC[C@@H]2NC(=O)[C@@H]3CCCN3[C@H](C(=O)NC(C)(C)C)[C@H](C)NC(=O)[C@H]([C@@H](C)O)NC(=O)[C@H](CC(=O)O)NC(=O)[C@H](CC(C)C)NC(=O)C[C@H](CCCCN)N(C)C2=O)NC(=O)[C@@H]2CCCN2[C@H](C(=O)NC(C)(C)C)[C@H](C)NC(=O)[C@H]([C@@H](C)O)NC(=O)[C@H](CC(=O)O)NC1=O` [Compound 535]: the IC50 came out at 15 nM.

For the molecule `CC(C)C[C@@H]1NC(=O)C[C@H](CCCCN)N(C)C(=O)[C@H](CCCCNC(=O)CCOCCOCCOCCOCCOCCOCCOCCC(=O)NCCCC[C@@H]2NC(=O)[C@@H]3CCCN3[C@H](C(=O)NC(C)(C)C)[C@H](C)NC(=O)[C@H]([C@@H](C)O)NC(=O)[C@H](CC(=O)O)NC(=O)[C@H](CC(C)C)NC(=O)C[C@H](CCCCN)N(C)C2=O)NC(=O)[C@@H]2CCCN2[C@H](C(=O)NC(C)(C)C)[C@H](C)NC(=O)[C@H]([C@@H](C)O)NC(=O)[C@H](CC(=O)O)NC1=O` [Compound 536], the IC50 came out at 16 nM.

Regarding `CC(C)C[C@@H]1NC(=O)C[C@H](CCCCN)N(C)C(=O)[C@H](CCCCNC(=O)c2cc(C(=O)NCCCC[C@@H]3NC(=O)[C@@H]4CCCN4[C@H](C(=O)NC(C)(C)C)[C@H](C)NC(=O)[C@H]([C@@H](C)O)NC(=O)[C@H](CC(=O)O)NC(=O)[C@H](CC(C)C)NC(=O)C[C@H](CCCCN)N(C)C3=O)cc(C(=O)NCCCC[C@@H]3NC(=O)[C@@H]4CCCN4[C@H](C(=O)NC(C)(C)C)[C@H](C)NC(=O)[C@H]([C@@H](C)O)NC(=O)[C@H](CC(=O)O)NC(=O)[C@H](CC(C)C)NC(=O)C[C@H](CCCCN)N(C)C3=O)c2)NC(=O)[C@@H]2CCCN2[C@H](C(=O)NC(C)(C)C)[C@H](C)NC(=O)[C@H]([C@@H](C)O)NC(=O)[C@H](CC(=O)O)NC1=O` [Compound 538], the IC50 came to 13 nM.
